Laboratory results reported in ChEMBL document CHEMBL4742390, “Derivatives of quinolines as inhibitors of dyrk1a and/or dyrk1b kinases” (2019).

Columns and labels:
[1] = molecular target: Dual specificity tyrosine-phosphorylation-regulated kinase 1A (Homo sapiens, UniProt Q13627); test: Inhibition of N-terminal GST tagged human DYRK1A expressed in Sf21 cells incubated for 30 mins by ADP-Glo assay
[2] = molecular target: Dual specificity tyrosine-phosphorylation-regulated kinase 1B (Homo sapiens, UniProt Q9Y463); test: Inhibition of N-terminal GST tagged human DYRK1B expressed in Sf21 cells incubated for 60 mins by ADP-Glo assay
Chain of Dual specificity tyrosine-phosphorylation-regulated kinase 1B (Q9Y463 whole entry): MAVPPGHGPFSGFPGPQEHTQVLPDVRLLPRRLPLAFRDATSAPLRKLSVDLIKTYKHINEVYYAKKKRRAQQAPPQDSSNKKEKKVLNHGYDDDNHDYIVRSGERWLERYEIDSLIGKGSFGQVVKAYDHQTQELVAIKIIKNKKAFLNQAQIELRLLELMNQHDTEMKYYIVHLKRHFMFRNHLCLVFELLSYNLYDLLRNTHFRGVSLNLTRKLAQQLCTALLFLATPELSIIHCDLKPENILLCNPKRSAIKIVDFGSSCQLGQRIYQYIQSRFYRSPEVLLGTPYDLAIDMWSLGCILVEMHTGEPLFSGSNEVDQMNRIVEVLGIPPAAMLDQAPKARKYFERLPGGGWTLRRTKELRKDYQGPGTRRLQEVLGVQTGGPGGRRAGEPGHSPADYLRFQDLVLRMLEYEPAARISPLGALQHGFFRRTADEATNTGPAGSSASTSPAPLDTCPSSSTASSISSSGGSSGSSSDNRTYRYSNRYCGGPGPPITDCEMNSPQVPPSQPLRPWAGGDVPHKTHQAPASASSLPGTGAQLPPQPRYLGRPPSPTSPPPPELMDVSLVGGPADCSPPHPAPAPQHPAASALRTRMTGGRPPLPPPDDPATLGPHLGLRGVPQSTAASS

SMILES | IC50 [1] | IC50 ([2]; sf21) | IC50 [2] | IC50 ([1]; sf21)
O=C(NCc1ccccc1)c1cnc2[nH]cc(-c3cc(F)c4nccc(-c5cccnc5)c4c3)c2c1 | < 0.01 µM | 0.01 µM |  | 
N[C@@H]1CCCN(c2ccnc3c(F)cc(-c4c[nH]c5ncc(C(=O)NCc6cccnc6)cc45)cc23)C1 | < 0.01 µM |  | < 0.01 µM | 
C=CCN(C)C(=O)c1cnc2[nH]cc(-c3ccc4nccc(Cl)c4c3)c2c1 | < 0.01 µM | 0.01 µM |  | 
FC(F)(F)Oc1cc(-c2c[nH]c3ncccc23)cc2cccnc12 |  |  | ≥ 0.1 µM | 0.01 µM
N[C@H]1CC[C@H](Nc2c(NCC3CCOCC3)cnc3ccc(-c4c[nH]c5ncc(C(=O)NCc6cccnc6)cc45)cc23)CC1 | < 0.01 µM | 0.01 µM |  | 
CNC(=O)c1cnc2[nH]cc(-c3cc(F)c4nccc(N5CCC[C@@H](N)C5)c4c3)c2c1 | < 0.01 µM |  | < 0.01 µM | 
C=CCN(C)C(=O)c1cnc2[nH]cc(-c3cc(OC)c4ncccc4c3)c2c1 | ≥ 0.1 µM |  | ≥ 0.1 µM | 
CNC(=O)c1cnc2[nH]cc(-c3ccc4ncc(NC(C)=O)c(N5CCOCC5)c4c3)c2c1 | < 0.01 µM |  | < 0.01 µM | 
Fc1cc(-c2c[nH]c3ncccc23)cc2cccnc12 | < 0.01 µM |  | < 0.01 µM | 
c1cnc2[nH]cc(-c3ccc4nccc(-c5ccncc5)c4c3)c2c1 | < 0.01 µM |  | < 0.01 µM | 
O=C(NCc1cccnc1)c1cnc2[nH]cc(-c3ccc4ncc(NCC5CCOCC5)cc4c3)c2c1 | < 0.01 µM |  | < 0.01 µM | 
Nc1cnc2ccc(-c3c[nH]c4ncc(C(=O)NCc5cccnc5)cc34)cc2c1 | < 0.01 µM |  | < 0.01 µM | 
CNC(=O)c1cnc2[nH]cc(-c3cc(F)c4nccc(N5CCC[C@H](N)C5)c4c3)c2c1 | < 0.01 µM |  | < 0.01 µM | 
C=CCN(C)Cc1cnc2[nH]cc(-c3cc(F)c4nccc(-c5cccnc5)c4c3)c2c1 | < 0.01 µM | 0.01 µM |  | 
Clc1cc(-c2c[nH]c3ncccc23)cc2cccnc12 | < 0.01 µM |  | < 0.01 µM | 
CNC(=O)c1cnc2[nH]cc(-c3cc(C)c4nccc(-c5cccnc5)c4c3)c2c1 |  |  | ≥ 0.1 µM | 
CNC(=O)c1cnc2[nH]cc(-c3cc(F)c4nccc(-c5cnccc5C)c4c3)c2c1 | < 0.01 µM |  | < 0.01 µM | 
CNC(=O)c1cnc2[nH]cc(-c3ccc4ncccc4c3)c2c1 | < 0.01 µM |  | < 0.01 µM | 
N[C@H]1CC[C@H](Nc2c([N+](=O)[O-])cnc3ccc(-c4c[nH]c5ncc(C(=O)NCc6cccnc6)cc45)cc23)CC1 |  | 0.01 µM |  | 0.01 µM
c1cnc2[nH]cc(-c3ccc4ncc(NCc5ccoc5)cc4c3)c2c1 | < 0.01 µM |  | < 0.01 µM | 
N[C@@H]1CCCN(c2ccnc3c(F)cc(-c4c[nH]c5ncc(CNCc6ccccc6)cc45)cc23)C1 | < 0.01 µM |  | < 0.01 µM | 
c1cnc2ccc(-c3c[nH]c4ncccc34)cc2c1 | < 0.01 µM |  | < 0.01 µM | 

SMILES | IC50 [1] | IC50 ([2]; sf21) | IC50 [2] | IC50 ([1]; sf21)
CC(=O)N1CCC(Nc2c(N)cnc3ccc(-c4c[nH]c5ncccc45)cc23)CC1 | < 0.01 µM |  | < 0.01 µM | 
C=CC1CN2CCC1CC2[C@H](O)c1ccnc2ccc(-c3c[nH]c4ncccc34)cc12 (some centres not stated) | < 0.01 µM |  | < 0.01 µM | 
CNC(=O)c1cnc2[nH]cc(-c3ccc4nccc(N5CCOCC5)c4c3)c2c1 | < 0.01 µM |  | < 0.01 µM | 
CC(=O)Nc1cnc2ccc(-c3c[nH]c4ncc(C(=O)NCc5cccnc5)cc34)cc2c1 | < 0.01 µM |  | < 0.01 µM | 
NC(=O)c1cnc2[nH]cc(-c3cc(F)c4ncccc4c3)c2c1 | < 0.01 µM |  | < 0.01 µM | 
NCCCNC(=O)c1cnc2[nH]cc(-c3cc(Cl)c4ncccc4c3)c2c1 | < 0.01 µM |  | < 0.01 µM | 
CN1CCC(Nc2ccnc3ccc(-c4c[nH]c5ncccc45)cc23)CC1 |  | 0.01 µM |  | 
N[C@@H]1CCCN(c2ccnc3c(F)cc(-c4c[nH]c5ncc(C(=O)NCc6cncnc6)cc45)cc23)C1 | < 0.01 µM |  | < 0.01 µM | 
CNC(=O)c1cnc2[nH]cc(-c3cc(F)c4ncccc4c3)c2c1 | < 0.01 µM |  | < 0.01 µM | 
Fc1cc(-c2c[nH]c3ncccc23)cc2c(-c3cccnc3)ccnc12 | < 0.01 µM |  | < 0.01 µM | 
C=CCCCc1ccnc2ccc(-c3c[nH]c4ncc(CN(C)CC=C)cc34)cc12 | < 0.01 µM | 0.01 µM |  | 
CNC(=O)c1cnc2[nH]cc(-c3ccc4ncc(NCc5cccc(Cl)c5)c(N5CCC[C@H](N)C5)c4c3)c2c1 | < 0.01 µM | 0.01 µM |  | 
CNC(=O)c1cnc2[nH]cc(-c3cc(F)c4nccc(-c5cccnc5)c4c3)c2c1 | < 0.01 µM |  | < 0.01 µM | 
c1ccc(-c2ccnc3ccc(-c4c[nH]c5ncccc45)cc23)cc1 | < 0.01 µM |  | < 0.01 µM | 
N[C@H]1CC[C@H](Nc2ccnc3ccc(-c4c[nH]c5ncccc45)cc23)CC1 |  |  | ≥ 0.1 µM | 
Cc1cc(-c2c[nH]c3ncccc23)cc2cccnc12 |  |  | ≥ 0.1 µM | 
C=CCN(C)C(=O)c1cnc2[nH]cc(-c3cc(F)c4nccc(-c5cccnc5)c4c3)c2c1 | < 0.01 µM | 0.01 µM |  | 
Fc1cc(-c2c[nH]c3ncc(CNCc4ccccc4)cc23)cc2c(-c3cccnc3)ccnc12 | < 0.01 µM |  | < 0.01 µM | 
CN1CCC(N(C)c2c([N+](=O)[O-])cnc3ccc(-c4c[nH]c5ncccc45)cc23)CC1 |  | 0.01 µM |  | 0.01 µM
c1cncc(-c2ccnc3ccc(-c4c[nH]c5ncccc45)cc23)c1 | < 0.01 µM |  | < 0.01 µM | 
Cc1cc(-c2c[nH]c3ncccc23)cc2c(-c3ccccc3)ccnc12 | ≥ 0.1 µM |  | ≥ 0.1 µM | 
Cc1cc(-c2c[nH]c3ncccc23)cc2c(-c3cccnc3)ccnc12 |  | 0.01 µM |  | 

SMILES | IC50 [1] | IC50 ([2]; sf21) | IC50 [2] | IC50 ([1]; sf21)
CNC(=O)c1cnc2[nH]cc(-c3ccc4nccc(-c5cccnc5)c4c3)c2c1 | < 0.01 µM |  | < 0.01 µM | 
Clc1ccnc2ccc(-c3c[nH]c4ncccc34)cc12 |  | 0.01 µM |  | 
NCCCNC(=O)c1cnc2[nH]cc(-c3cc(F)c4nccc(-c5cccnc5)c4c3)c2c1 | < 0.01 µM |  | < 0.01 µM | 
CNC(=O)c1cnc2[nH]cc(-c3ccc4ncc(NCc5cccc(Cl)c5)c(N5CCOCC5)c4c3)c2c1 | < 0.01 µM | 0.01 µM |  | 
CNC(=O)c1cnc2[nH]cc(-c3cc(F)c4nccc(CCc5ccccc5)c4c3)c2c1 | < 0.01 µM |  | < 0.01 µM | 
CC(=O)Nc1cnc2[nH]cc(-c3cc(F)c4nccc(-c5cccnc5)c4c3)c2c1 | < 0.01 µM |  | < 0.01 µM | 
COc1cc(-c2c[nH]c3ncc(C(N)=O)cc23)cc2c(-c3cccnc3)ccnc12 |  |  | ≥ 0.1 µM | 0.01 µM
CNC(=O)c1cnc2[nH]cc(-c3ccc4nccc(Cl)c4c3)c2c1 | < 0.01 µM |  | < 0.01 µM | 
C=CCN(C)C(=O)c1cnc2[nH]cc(-c3cc(Cl)c4ncccc4c3)c2c1 | < 0.01 µM | 0.01 µM |  | 
N[C@H]1CCN(c2ccnc3ccc(-c4c[nH]c5ncccc45)cc23)C1 |  |  | < 0.01 µM | 
CNC(=O)c1cnc2[nH]cc(-c3cc(OC)c4ncccc4c3)c2c1 |  |  | ≥ 0.1 µM | 
C=CCN(C)C(=O)c1cnc2[nH]cc(-c3cc(F)c4ncccc4c3)c2c1 | < 0.01 µM |  | < 0.01 µM | 
NCCCNC(=O)c1cnc2[nH]cc(-c3cc(F)c4ncccc4c3)c2c1 | < 0.01 µM |  | < 0.01 µM | 
COc1cc(-c2c[nH]c3ncccc23)cc2cccnc12 |  |  | ≥ 0.1 µM | 
CNC(=O)c1cnc2[nH]cc(-c3ccc4ncc(N)c(N5CCC[C@H](N)C5)c4c3)c2c1 | < 0.01 µM |  | < 0.01 µM | 
O=C(NCc1cccnc1)c1cnc2[nH]cc(-c3cc(F)c4nccc(-c5cccnc5)c4c3)c2c1 | < 0.01 µM |  | < 0.01 µM | 
O=C(NCc1ccccc1)c1cnc2[nH]cc(-c3cc(F)c4ncccc4c3)c2c1 | < 0.01 µM |  | < 0.01 µM | 
CNC(=O)c1cnc2[nH]cc(-c3ccc4ncc(NCC5CCOCC5)c(N5CCOCC5)c4c3)c2c1 | < 0.01 µM | 0.01 µM |  | 
CNC(=O)c1cnc2[nH]cc(-c3ccc4ncc([N+](=O)[O-])c(N5CCC[C@H](N)C5)c4c3)c2c1 | < 0.01 µM | 0.01 µM |  | 
CN1CCC(Nc2c(C#N)cnc3ccc(-c4c[nH]c5ncccc45)cc23)CC1 |  | 0.01 µM |  | 
O=C(NCc1ccccc1)c1cnc2[nH]cc(-c3cc(Cl)c4ncccc4c3)c2c1 | < 0.01 µM | 0.01 µM |  | 
N[C@H]1CCCN(c2ccnc3ccc(-c4c[nH]c5ncccc45)cc23)C1 | < 0.01 µM |  | < 0.01 µM | 
